We go through 3 compounds from patent US20060276438A1 (priority 2004, published 2006).

SMILES strings stand for the structures. Values after ≈ are worked out from the molar mass of the structure shown. Values joined by “and” are separate entries in the source; they are usually repeats but may differ in a detail not shown here. Identical values can stand only once. Like-named read-outs stand apart in the source and are kept apart here. Marks after values point to notes of the source that are not given here.

The test system of data set [1] is Madin-Darby canine kidney cells (MDCK). As to conditions: at concentrations of 1-100 μg/ml.
Data set [2] deals with Influenza B (Hong Kong/330/02). The data set can be described thus: Antiviral assay in MDCK cells (CPE inhibition visual / Neutral Red), influenza B, initial and confirmatory test. It counts as cell-based, influenza type B virus. As to conditions: for antiviral activity rating in words: influenza virus B. The method, then:
An antiviral test assay for the determination of the efficacy of DON was carried out according to the methods described in Furata et al., Antimicrobial Agents and Chemotherapy, 46(4):977-981 (2002). The vehicle used was Eagle's modification of minimum essential medium (EMEM). Two tests were carried out with different strains of influenza type A viruses and one test, followed by a confirmatory test, was carried out with an influenza type B virus strain. The cell type in all tests was Madin-Darby canine kidney cells (MDCK), and in all tests drug units and control units are expressed as micrograms/milliliter (μg/ml). […] The Safety Index (SI) of the drug could then be calculated according to the formula: SI═IC50/EC50. […] The Safety Index (SI) of the drug could then be calculated according to the formula: SI═IC50/ EC50, or SI═IC50/ EC90. All drug tests were carried out with stationary cells.

Data set [3] relates to Influenza A (H1N1; New Caledonia/20/99). The data set can be described thus: microbe, parasite or virus in culture. The format is cell-based, influenza type A virus. As to conditions: for EC50: Influenza A virus, H1N1, MDCK, MDCK cells, H1N1 New Caledonia/20/99; for antiviral activity rating in words: influenza virus A (H1N1).
Data set [4] relates to Madin-Darby canine kidney cells (MDCK). The data set can be described thus: cells. As to conditions: Canis lupus familiaris.
In data set [5] the test system is Influenza A (H3N2; Panama/2007/99). The data set can be described thus: microbe, parasite or virus in culture. It counts as cell-based, influenza type A virus. As to conditions: for EC50: MDCK cells, H3N2 Panama/2007/99; for SI (Safety Index = IC50/EC50): H3N2; for antiviral activity rating in words: influenza virus A (H3N2).
Setting [6] is: Influenza B virus, MDCK, CPE inhibition (visual), MDCK cells, influenza B Hong Kong/330/02, initial test, read-out: EC50.
The mark [7] stands for this setting: Influenza B virus, MDCK, Neutral Red assay, MDCK cells, influenza B Hong Kong/330/02, initial test, read-out: EC50.
The mark [8] stands for this setting: Influenza B virus, MDCK, confirmatory test, visual method, MDCK cells, influenza B Hong Kong/330/02, read-out: EC50.
The mark [9] stands for this setting: based on EC50 by CPE inhibition (visual), influenza B initial test.
[10] abbreviates: based on EC50 by Neutral Red, influenza B initial test.
Setting [11] is: based on EC50 by CPE inhibition (visual), H1N1.
[12] abbreviates: based on EC50 by Neutral Red, H1N1.
Setting [13] is: read-out: IC50 (concentration toxic for 50% of MDCK host cells), in the influenza A H1N1 test, stationary cells.
Where [14] appears, read: read-out: IC50 (concentration toxic for 50% of MDCK host cells), in the influenza A H3N2 test, stationary cells.
Setting [15] is: read-out: IC50 (concentration toxic for 50% of MDCK host cells), in the influenza B confirmatory test, stationary cells.
Setting [16] is: read-out: IC50 (concentration toxic for 50% of MDCK host cells), in the influenza B initial test, stationary cells.
[17] abbreviates: Influenza A virus, H3N2, MDCK, CPE inhibition (visual), read-out: EC50.
Setting [18] is: Influenza A virus, H3N2, MDCK, Neutral Red assay, read-out: EC50.
The mark [19] stands for this setting: based on EC50 by CPE inhibition (visual).

`[N-]=[N+]=CC(=O)CC[C@H](N)C(=O)O` [DON, 6-diazo-5-oxo-L-norleucine]: in data set [1], the “toxicity in the neutral red assay” value is 25-50%. The concentration for an effect of 90% (EC90) in data set [2] (Influenza B virus, MDCK) was 2.5 µg/mL (≈ 14.6 µM). For the same compound, the EC50 in data set [2] (setting [6]) came to 0.032 µg/mL (≈ 0.187 µM); in data set [2] (setting [7]) it was 0.14 µg/mL (≈ 0.818 µM); in data set [2] (setting [8]), 0.18 µg/mL (≈ 1.05 µM); in data set [3] (CPE inhibition (visual)), 0.32 µg/mL (≈ 1.87 µM); in data set [3] (Neutral Red assay) it was 0.21 µg/mL (≈ 1.23 µM); in data set [5] (setting [17]), 2.3 µg/mL (≈ 13.4 µM). Further, the EC50 in data set [5] (setting [18]) came out at 1.8 µg/mL (≈ 10.5 µM). The “SI (Safety Index = IC50/EC50)” value in data set [2] (setting [9]) is recorded as 3,125; in data set [2] (setting [10]) it was 714; in data set [2] (influenza B confirmatory test) it was above 555; in data set [3] (setting [11]), 312; in data set [3] (setting [12]), 476; in data set [5] (setting [19]) it was 43. Also, the “SI (Safety Index = IC50/EC50)” value in data set [5] (based on EC50 by Neutral Red) was 56. The “SI = IC50/EC90” value in data set [2] (influenza B confirmatory test) is given as 40^b. Further, the “antiviral activity rating in words” value in data set [2], in data set [3] and in data set [5] was “active to highly active” throughout. Besides, the “toxicity by neutral red assay in Vero cells compared with MDCK cells” value in the data set on Vero cells was “much greater than in MDCK cells”. Besides, the IC50 is above 100 µg/mL in data set [4] (setting [13]), at least 100 µg/mL in data set [4] (setting [14]), above 100 µg/mL in data set [4] (setting [15]) and at least 100 µg/mL in data set [4] (setting [16]).
Turning to `NC(=O)c1ncn([C@@H]2O[C@H](CO)[C@@H](O)[C@H]2O)n1` [Positive control drug, ribavarin], the EC50 in data set [2] (setting [7]) came out at 2 µg/mL (≈ 8.19 µM); in data set [2] (setting [8]), 1.8 µg/mL (≈ 7.37 µM); in data set [2] (Neutral Red assay, MDCK cells, influenza B Hong Kong/330/02, initial test), 1.2 µg/mL (≈ 4.91 µM); in data set [3] (CPE inhibition (visual)), 5.5 µg/mL (≈ 22.5 µM); in data set [3] (Neutral Red assay), 5.5 µg/mL (≈ 22.5 µM); in data set [5] (setting [18]) it was 4.3 µg/mL (≈ 17.6 µM). This compound had an EC50 in data set [5] (Neutral Red assay) of 5.5 µg/mL (≈ 22.5 µM). Moreover, in data set [2] (Influenza B virus, confirmatory test, visual method, MDCK cells, influenza B Hong Kong/330/02, read-out: EC90), the EC90 was found to be 3.5 µg/mL (≈ 14.3 µM). In addition, the “SI (Safety Index = IC50/EC50)” value in data set [2] (setting [10]) is >50 and >83; in data set [2] (influenza B confirmatory test), above 56; in data set [3] it was above 18. The “SI = IC50/EC90” value in data set [2] (influenza B confirmatory test) is listed as >29^b. The IC50 in data set [4] (setting [13]), in data set [4] (setting [14]), in data set [4] (setting [15]) and in data set [4] (setting [16]) was above 100 µg/mL throughout.
Regarding `N[C@H](C(=O)O)[C@@H]1CC(Cl)=NO1` [acivicin, (alpha-S,5S)-alpha-amino-3-chloro-2-isoxazoline-5-acetic acid], the EC50 in data set [2] (setting [6]) came out at 0.32 µg/mL (≈ 1.79 µM); in data set [2] (setting [7]), 0.32 µg/mL (≈ 1.79 µM); in data set [3] (CPE inhibition (visual)), 2.5 µg/mL (≈ 14 µM); in data set [3] (Neutral Red assay), 1.3 µg/mL (≈ 7.28 µM); in data set [5] (setting [17]), 50 µg/mL (≈ 280 µM); in data set [5] (setting [18]), 55 µg/mL (≈ 308 µM). The “SI (Safety Index = IC50/EC50)” value is above 312 in data set [2] (setting [9]); above 312 in data set [2] (setting [10]); above 4 in data set [3] (setting [11]); above 7.7 in data set [3] (setting [12]); above 2 in data set [5] (setting [19]); 1.8 in data set [5] (based on EC50 by Neutral Red). Also, the “antiviral activity rating in words” value in data set [2] is on record as “markedly active”; in data set [3] it was “weakly active to active”; in data set [5] it was “not active”. Further, the IC50 was above 100 µg/mL in data set [4] (setting [13]), at least 100 µg/mL in data set [4] (setting [14]) and at least 100 µg/mL in data set [4] (setting [16]).

One may read the EC90 as the point of the concentration-response curve where the effect stands at 90%. In general, EC50 refers to the midpoint of the concentration-response curve.
